Each structure is given as a SMILES string. pIC50: −log10 of the molar value. Counter-ions that a name gives are not always drawn.

The text below walks through data of EP4722213A1, “NITROGEN-CONTAINING FUNCTIONAL GROUP-SUBSTITUTED PYRIDAZINOPYRIDONE DERIVATIVE AND USE THEREOF” (Sichuan Huiyu Pharmaceutical Co., Ltd., priority 2023, dated 2024).

This assay concerns the target T1, SOS1 (Homo sapiens, UniProt Q07889).
T1 sequence (Q07889 1-1333): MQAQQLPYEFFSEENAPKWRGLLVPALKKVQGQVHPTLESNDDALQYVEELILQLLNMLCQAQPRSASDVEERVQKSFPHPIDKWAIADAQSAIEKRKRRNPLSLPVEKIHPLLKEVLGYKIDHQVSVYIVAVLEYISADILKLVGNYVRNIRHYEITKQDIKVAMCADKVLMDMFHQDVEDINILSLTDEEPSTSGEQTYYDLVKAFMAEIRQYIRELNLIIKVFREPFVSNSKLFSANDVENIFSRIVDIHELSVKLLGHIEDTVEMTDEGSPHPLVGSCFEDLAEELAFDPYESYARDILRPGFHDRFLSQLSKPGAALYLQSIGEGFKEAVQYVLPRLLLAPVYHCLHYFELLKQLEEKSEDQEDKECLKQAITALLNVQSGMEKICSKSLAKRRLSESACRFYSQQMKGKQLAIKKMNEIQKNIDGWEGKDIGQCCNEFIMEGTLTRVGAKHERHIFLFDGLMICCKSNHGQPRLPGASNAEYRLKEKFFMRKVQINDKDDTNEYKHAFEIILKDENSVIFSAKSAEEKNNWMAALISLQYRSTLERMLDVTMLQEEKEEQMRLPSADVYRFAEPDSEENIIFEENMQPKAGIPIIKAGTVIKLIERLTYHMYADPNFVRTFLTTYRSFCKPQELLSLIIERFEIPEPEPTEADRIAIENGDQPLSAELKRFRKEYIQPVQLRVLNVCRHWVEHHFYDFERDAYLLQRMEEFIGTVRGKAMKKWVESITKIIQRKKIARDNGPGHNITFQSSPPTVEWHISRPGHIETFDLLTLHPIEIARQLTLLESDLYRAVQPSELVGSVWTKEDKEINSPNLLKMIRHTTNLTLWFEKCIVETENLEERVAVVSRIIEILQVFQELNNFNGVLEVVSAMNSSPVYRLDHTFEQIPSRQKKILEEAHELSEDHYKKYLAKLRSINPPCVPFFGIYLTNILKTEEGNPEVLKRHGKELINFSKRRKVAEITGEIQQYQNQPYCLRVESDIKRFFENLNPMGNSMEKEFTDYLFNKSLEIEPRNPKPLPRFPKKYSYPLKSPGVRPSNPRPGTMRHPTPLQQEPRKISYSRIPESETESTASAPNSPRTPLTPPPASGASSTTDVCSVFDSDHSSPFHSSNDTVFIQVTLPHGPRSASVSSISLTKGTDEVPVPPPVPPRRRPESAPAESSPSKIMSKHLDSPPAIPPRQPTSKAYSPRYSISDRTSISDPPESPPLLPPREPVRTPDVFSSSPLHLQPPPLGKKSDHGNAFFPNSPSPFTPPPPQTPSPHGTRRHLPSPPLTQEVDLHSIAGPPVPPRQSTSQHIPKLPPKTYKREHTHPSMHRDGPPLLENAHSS
Nature of the assay: biochemical.

On to `C[C@@H](Nc1nnc(N2CCN(C3CCCC3)CC2)c2cc(=O)n(C3CC(F)(F)C3)cc12)c1cccc(C(F)F)c1F` [Example 106, (R)-6-(3,3-difluorocyclobutyl)-4-((1-(3-(difluoromethyl)-2-fluorophenyl)ethyl)amino)-1-(4-cyclopentylpiperazin-1-yl)pyrido[3,4-d]pyridazin-7(6H)-one], for which the pIC50 (commonly −log10 of the IC50, conventionally taken in molar units) was 8.28. Under `C[C@@H](Nc1nnc(N2CCN(CC3CC3)CC2)c2cc(=O)n(C3CC(F)(F)C3)cc12)c1cccc(C(F)F)c1F` [Example 107, (R)-6-(3,3-difluorocyclobutyl)-4-((1-(3-(difluoromethyl)-2-fluorophenyl)ethyl)amino)-1-(4-(cyclopropylmethyl)piperazin-1-yl)pyrido[3,4-d]pyridazin-7(6H)-one] stands 8.38. For `CC(C)n1cc2c(N[C@H](C)c3cccc(C(F)F)c3F)nnc(N3CCN(C)CC3)c2cc1=O` [Example 114, (R)-4-((1-(3-(difluoromethyl)-2-fluorophenyl)ethyl)amino)-6-isopropyl-1-(4-methylpiperazin-1-yl)pyrido[3,4-d]pyridazin-7(6H)-one formate], the pIC50 was 8.22. The pIC50 values of the last two compounds are within 0.2 log units of each other. Compound `C[C@@H](Nc1nnc(NC2COC2)c2cc(=O)n(C3(C)CC3)cc12)c1cccc(C(F)F)c1F` [Example 115, (R)-4-((1-(3-(difluoromethyl)-2-fluorophenyl)ethyl)amino)-6-(1-methylcyclopropyl)-1-(oxetan-3-ylamino)pyrido[3,4-d]pyridazin-7(6H)-one] had a negative logarithm of the IC50 (pIC50) of 8.39.

As to `CCn1cc2c(N[C@H](C)c3cccc(C(F)F)c3F)nnc(N3CCN(C)CC3)c2cc1=O` [Example 116, (R)-4-((1-(3-(difluoromethyl)-2-fluorophenyl)ethyl)amino)-6-ethyl-1-(4-methylpiperazin-1-yl)pyrido[3,4-d]pyridazin-7(6H)-one], the negative-log IC50 (pIC50) is 8.18. The figure for `CCN1CCN(c2nnc(N[C@H](C)c3cccc(C(F)F)c3F)c3cn(CC)c(=O)cc23)CC1` [Example 117, (R)-4-((1-(3-(difluoromethyl)-2-fluorophenyl)ethyl)amino)-6-ethyl-1-(4-ethylpiperazin-1-yl)pyrido[3,4-d]pyridazin-7(6H)-one] is 8.09; for `CCn1cc2c(N[C@H](C)c3cccc(C(F)F)c3F)nnc(N3CCN(C(C)C)CC3)c2cc1=O` [Example 118, (R)-4-((1-(3-(difluoromethyl)-2-fluorophenyl)ethyl)amino)-6-ethyl-1-(4-isopropylpiperazin-1-yl)pyrido[3,4-d]pyridazin-7(6H)-one] it is 8.08; for `CCN(C)c1nnc(N[C@H](C)c2cccc(C(F)F)c2F)c2cn(C3(C)CC3)c(=O)cc12` [Example 122, (R)-4-((1-(3-(difluoromethyl)-2-fluorophenyl)ethyl)amino)-1-(ethyl(methyl)amino)-6-(1-methylcyclopropyl) pyrido[3,4-d]pyridazin-7(6H)-one] it is 7.97. As to `C[C@@H](Nc1nnc(NC2CCN(C)CC2)c2cc(=O)n(C3(C)CC3)cc12)c1cccc(C(F)F)c1F` [Example 123, (R)-4-((1-(3-(difluoromethyl)-2-fluorophenyl)ethyl)amino)-6-(1-methylcyclopropyl)-1-((1-methylpiperidin-4-yl)amino)pyrido[3,4-d]pyridazin-7(6H)-one formate], the pIC50 was 8.42.

Turning to `C[C@@H](Nc1nnc(N(C)CCN(C)C)c2cc(=O)n(C3(C)CC3)cc12)c1cccc(C(F)F)c1F` [Example 124, (R)-4-((1-(3-(difluoromethyl)-2-fluorophenyl)ethyl)amino)-1-((2-(dimethylamino)ethyl)(methyl)amino)-6-(1-methylcyclopropyl) pyrido[3,4-d]pyridazin-7(6H)-one formate], the pIC50 is 8.24. The pIC50 values of the last two compounds are within 0.2 log units of each other. `C[C@@H](Nc1nnc(NC23CC(C2)C3)c2cc(=O)n(C3(C)CC3)cc12)c1cccc(C(F)F)c1F` [Example 125, (R)-1-(bicyclo[1.1.1]pentan-1-ylamino)-4-((1-(3-(difluoromethyl)-2-fluorophenyl)ethyl)amino)-6-(1-methylcyclopropyl) pyrido[3,4-d]pyridazin-7(6H)-one] had a negative logarithm of the IC50 (pIC50) of 7.85.

The compound `C[C@@H](Nc1nnc(NC2CCN(C)C2)c2cc(=O)n(C3(C)CC3)cc12)c1cccc(C(F)F)c1F` (stereo partly drawn) [Example 126, 4-(((R)-1-(3-(difluoromethyl)-2-fluorophenyl)ethyl)amino)-6-(1-methylcyclopropyl)-1-((1-methylpyrrolidin-3-yl)amino)pyrido[3,4 d]pyridazin-7(6H)-one] had a pIC50 of 8.03.

`C[C@@H](Nc1nnc(N2CCN(C)CC2)c2cc(=O)n(C3CCOC3)cc12)c1cccc(C(F)F)c1F` (stereo partly drawn) [Example 127, 4-(((R)-1-(3-(difluoromethyl)-2-fluorophenyl)ethyl)amino)-1-(4-methylpiperazin-1-yl)-6-(tetrahydrofuran-3-yl)pyrido[3,4-d]pyridazin-7(6H)-one] gave a pIC50 of 8.17. For the compound `C[C@@H](Nc1nnc(N2CCC(CO)C2)c2cc(=O)n(C3(C)CC3)cc12)c1cccc(C(F)F)c1F` (stereo partly drawn) [Example 128, 4-(((R)-1-(3-(difluoromethyl)-2-fluorophenyl)ethyl)amino)-1-(3-(hydroxymethyl)pyrrolidin-1-yl)-6-(1-methylcyclopropyl) pyrido[3,4-d]pyridazin-7(6H)-one], the pIC50 was 8.38. Regarding `C[C@@H](Nc1nnc(NC(C2CC2)C2CC2)c2cc(=O)n(C3(C)CC3)cc12)c1cccc(C(F)F)c1F` [Example 129, (R)-1-((dicyclopropylmethyl)amino)-4-((1-(3-(difluoromethyl)-2-fluorophenyl)ethyl)amino)-6-(1-methylcyclopropyl) pyrido[3,4-d]pyridazin-7(6H)-one], the pIC50 is 8.21. Under `C[C@@H](Nc1nnc(N2CC(CO)C2)c2cc(=O)n(C3(C)CC3)cc12)c1cccc(C(F)F)c1F` [Example 131, (R)-4-((1-(3-(difluoromethyl)-2-fluorophenyl)ethyl)amino)-1-(3-(hydroxymethyl)azetidin-1-yl)-6-(1-methylcyclopropyl) pyrido[3,4-d]pyridazin-7(6H)-one] stands 8.34; under `Cc1c(C#N)cccc1[C@@H](C)Nc1nnc(N2CCN(C(C)C)CC2)c2cc(=O)n(C3CCN(C)CC3)cc12` [Example 132, (R)-3-(1-((1-(4-isopropylpiperazin-1-yl)-6-(1-methylpiperidin-4-yl)-7-oxo-6,7-dihydropyrido[3,4-d]pyridazin-4-yl)amino)ethyl)-2-methylbenzonitrile], 7.78; under `C[C@@H](Nc1nnc(NC2CN3CCC2CC3)c2cc(=O)n(C3(C)CC3)cc12)c1cccc(C(F)F)c1F` (stereo partly drawn) [Example 133, 4-(((R)-1-(3-(difluoromethyl)-2-fluorophenyl)ethyl)amino)-6-(1-methylcyclopropyl)-1-(quinuclidin-3-ylamino)pyrido[3,4-d]pyridazin-7(6H)-one], 8.19. `C[C@@H](Nc1nnc(NCC(F)F)c2cc(=O)n(C3(C)CC3)cc12)c1cccc(C(F)F)c1F` [Example 134, (R)-1-((2,2-difluoroethyl)amino)-4-((1-(3-(difluoromethyl)-2-fluorophenyl)ethyl)amino)-6-(1-methylcyclopropyl) pyrido[3,4-d]pyridazin-7(6H)-one]: the pIC50 was 8.02.
